Measured values published in patent US8501715B2, “Oxidized lipids and uses thereof in the treatment of inflammatory diseases and disorders” (Vascular Biogenics Ltd., priority 2003, dated 2013).

What was measured:
[1] = test system: IL12p40; test: p40 production by activated BMDC's (ELISA); type: cell-based, mouse; conditions: BMDC's, 1 h pre-incubation, PGN 10 μg/ml, 24 hours; preliminary results
[2] = test system: Apo-E KO mice; test: Assessment of atherosclerosis: lesion area in the aortic sinus; type: in vivo, mouse
[3] = test system: Apo-E KO mice; test: Aorta lesion (% from total area); type: in vivo; conditions: oral 1 mg/mouse, 5 feedings every other day every 4 weeks over 12 weeks; 24.5 week old mice; End
From the text: Assessment of Atherosclerosis: Quantification of atherosclerotic fatty streak lesions was done by calculating the lesion size in the aortic sinus as previously described (Paigen et al. Quantitative assessment of atherosclerotic lesions in mice. Atherosclerosis 1987; 68: […]) and by calculating the lesion size in the aorta. Briefly, after perfusion with saline Tris EDTA, the heart and the aorta were removed from the animals and the peripheral fat cleaned carefully. The upper section of the heart was embedded in OCT medium (10.24% w/w polyvinyl alcohol; 4.26% w/w polyethylene glycol; 85.50 w/w nonreactive ingredients) and frozen. […] Sections were evaluated for fatty streak lesions after staining with oil-red O. Lesion areas per section were scored on a grid (Rubin et al. Inhibition of early atherogenesis in transgenic mice by human apoplipoprotein A-I. Nature 1991; 353: 265-267) by an observer counting unidentified, numbered specimens. […]
Their effect on the triglyceride and cholesterol fractions of VLDL was also monitored by FPLC. […]
(§1) Mice were bled prior to feeding (Time 0), after the 2nd set of feeding and at the conclusion of the experiment (End) for determination of lipid profile, lipid fractionation and plasma collection. Atherosclerosis was assessed as described above in the aorta sinus and aorta. […] Weight was recorded every 2 weeks throughout the experiment. […]

[4] = FPLC analysis of triglyceride and cholesterol content of VLDL; type: in vivo; conditions: oral 1 mg/mouse, 3 sets over 12 weeks; measured 9 weeks from t=0; FPLC of pooled blood
Experimental: (§2) 24.5 weeks old Apo-E KO mice were fed 1 mg/mouse L-ALLE (triangle) (n=11), D-ALLE (inverted triangle) (n=9) or POVPC (square) (n=10) every other day for 5 days, at 4 weeks intervals over a 12 weeks period. Control mice were fed an identical volume (0.2 ml) and regimen of PBS (circle) (n=10). Triglyceride content (Tg, mg/ml) was measured 9 weeks from t=0, by enzymatic colorimetric method in the VLDL fractions following separation of pooled blood samples on FPLC, as described in the materials and methods section that follows.
as §2, with “Cholesterol” for “Triglyceride”, “(Cholesterol,” for “(Tg,”
FPLC Analysis: Fast Protein Liquid Chromatography analysis of cholesterol and lipid content of lipoproteins was performed using Superose 6 HR 10/30 column (Amersham Pharmacia Biotech, Inc, Peapack, N.J.) on a FPLC system (Pharmacia LKB. FRAC-200, Pharmacia, Peapack, N.J.). A minimum sample volume of 300 μl (blood pooled from 3 mice was diluted 1:2 and filtered before loading) was required in the sampling vial for the automatic sampler to completely fill the 200 μl sample loop. Fractions 10-40 were collected, each fraction contained 0.5 ml. A 250 μl sample from each fraction was mixed with freshly prepared cholesterol reagent or triglyceride reagent respectively, incubated for 5 minutes at 37° C. and assayed spectrophotometrically at 500 nm.
Their effect on the triglyceride and cholesterol fractions of VLDL was also monitored by FPLC. […] male, 24.5 week old Apo-E KO mice were divided into 5 groups. In group A (n=11) mice were fed with 1 mg/mouse L-ALLE suspended in 0.2 ml PBS, administered by gavage, as described above, every other day for 5 days. In group B (n=9) mice were fed with 1 mg/mouse D-ALLE suspended in 0.2 ml PBS, administered per os, as described above, every other day for 5 days. In group C (n=10) mice were fed with 1 mg/mouse POVPC suspended in 0.2 ml PBS, administered by gavage, as described above, every other day for 5 days. […]
as §1

[5] = test system: IL-10; test: RT-PCR cytokine expression in the aorta: IL-10; type: in vivo, mouse; conditions: oral 1 mg/mouse 5 times every other day, 8 weeks after final administration
Experimental: (§3) The effect of ALLE, CI-201, its corresponding acetal derivatives Et-acetal and Me-acetal (Compounds IIa and IIb, FIG. 10) and oxLDL on cytokine expression in the target organ—the aorta—was evaluated using RT-PCR as described hereinabove. […] Oral administrations took place 5 times every other day.

[6] = test system: IFN-γ; test: RT-PCR cytokine expression in the aorta: IFN-γ; type: in vivo; conditions: oral 1 mg/mouse 5 times every other day, 8 weeks after final administration
Experimental: as §3

[7] = test system: IL-12; test: RT-PCR cytokine expression in the aorta: IL-12; type: in vivo; conditions: oral 1 mg/mouse 5 times every other day, 8 weeks after final administration
Experimental: as §3

With CCCCCCCCCCCCCCCCOCC(CO)OCCCCC(=O)O (stereo not shown) [non phosphorylated metabolite of CI-201] the “p40 production / p40 inhibition, structure-function analysis” value (“p40 production / p40 inhibition” below) [1] was “restored p40 production”.

In the case of CCCCCCCCCCCCCCCCOC[C@H](COP(=O)(O)OCCN)OCCCCC(=O)O [phosphoethanol amine, 1-O-Hexadecyl-2-(4′-carboxybutyl)-sn-Glycero-3-Phosphoethanolamine], the “p40 production / p40 inhibition” value [1] is reported as “did not alter the molecule's p40 inhibitory effect”.

In the case of C=CCCCCO[C@H](COCCCCCCCCCCCCCCCC)COP(=O)([O-])OCC[N+](C)(C)C [Compound V, 1-Hexadecyl-2-(5′-hexenyl)-sn-glycero-3-phosphocholine], the atherogenesis progression ([2]; oral 0.1 μg/dose, 3 monthly sets of 5 administrations) is reported as “did not effect atherogenesis progression”, the Sinus Lesion ([2]; oral 0.1 μg/dose, 3 monthly sets of 5 administrations, 12 weeks, 23-26 weeks old mice, no statistical difference to PBS) is reported as 238000 ± 32200 µm² and the “Sinus Lesion” value ([2]; oral 0.2 mg/mouse every other day for 5 days, 8 weeks after last administration) is reported as 334622 ± 26100 μm^2. The “Sinus Lesion” value ([2]; oral 1 mg/mouse every other day for 5 days, 8 weeks after last administration) was 361166 ± 24068 μm^2, the “Sinus Lesion” value ([2]; oral 5 mg/mouse every other day for 5 days, 8 weeks after last administration) was 307291 ± 22689 μm^2 and the effect on atherogenesis ([2]; oral 0.2-5 mg/mouse every other day for 5 days) was “no effect”.

For CCCCCCCCCCCCCCCCOC[C@H](COP(=O)([O-])OCC[N+](C)(C)C)OCCCCC=O [D-ALLE, 1-hexadecyl-2-(5′-oxo-pentanyl)-sn-glycero-3-phosphocholine], the “Sinus Lesion” value ([2]; oral 1 mg/mouse, 5 feedings every other day every 4 weeks over 12 weeks, 24.5 week old mice, End (12 weeks after first feeding)) was 245938 ± 20474 μm^2, the “protection from atheromatous progression” value ([2]; oral 1 mg/mouse, late stage, compared with lesion scores at 24.5 weeks) was “nearly complete protection” and the “Aorta lesion (% from total area)” value [3] was 4.5 % from total area. For the same compound, the “cholesterol content of VLDL” value [4] was “reduction” and the “triglyceride content of VLDL” value [4] was “reduction”.

In the case of CCCCCCCCCCCCCCCCOC[C@H](COP(=O)([O-])OCC[N+](C)(C)C)OC(C)=O [PAF, 1-O-Hexadecyl-2-Acetoyl-sn-Glycero-3-Phosphocholine, reference compound], the “p40 production / p40 inhibition” value [1] is reported as “efficient in p40 inhibition”.

For 2,5′-Aldehyde Lecithin Ether [ALLE], the protection from atherogenesis ([2]; ALLE by both oral (1 mg/mouse) and nasal (10 μg/mouse) administrations) was “approximately 50%”, the “protection from atherosclerotic lesion formation” value ([2]; i.p. immunization with ALLE (mixture of D- and L-)) was greater than 50% and the Lesion size ([2]; i.p. immunization x4 every 2 weeks (ALLE 150 μg/mouse coupled to PPD; PPD alone), 4.5 weeks post 4th immunization) was 101000 ± 8276 μm^2. For the same compound, the Lesion size ([2]; nasal 10 μg/mouse L-ALLE every other day for 3 days, 8 weeks after last exposure) was 82708 ± 10986 μm^2, the Lesion size ([2]; oral 10 μg/mouse L-ALLE+D-ALLE every other day for 5 days, 8 weeks after last feeding) was 103889 ± 14320 μm^2 and the Lesion size ([2]; oral 1 mg/mouse L-ALLE every other day for 5 days, 8 weeks after last feeding) was 76944 ± 17072 μm^2. For the same compound, the Lesion size ([2]; oral 1 mg/mouse L-ALLE+D-ALLE every other day for 5 days, 8 weeks after last feeding) was 85278 ± 11633 μm^2, the “atherogenesis in Apo-E KO mice, oral administration (summary of earlier examples)” value ([2]; oral administration) was “substantially inhibited atherogenesis” and the protection from atherosclerosis ([2]; oral administration of ALLE, 10 μg-1 mg/mouse) was greater than 50%. The “IL-10 expression in the aorta versus PBS” value [5] was “elevated levels”, the “IFN-γ expression in the aorta versus PBS” value [6] was “Reduced expression levels” and the “IL-12 expression in the aorta versus PBS” value [7] was “reduced levels”.

With CCCCCCCCCCCCCCCCOC[C@H](COP(=O)([O-])OCC[N+](C)(C)C)OC(=O)CCC [PAF2C, 1-O-Hexadecyl-2-O-Butyroyl-sn-Glycero-3-Phosphocholine, reference compound] the “p40 production / p40 inhibition” value [1] was “efficient in p40 inhibition”.

With CCCCCCCCCCCCCCCCOCC(COP(=O)([O-])OCC[N+](C)(C)C)OCCCCC(=O)OC (stereo not shown) [methyl ester of CI-201] the “p40 production / p40 inhibition” value [1] was “restored p40 production”.
